Here are results for four molecules from patent EP4592290A1, “CARBONYL FUSED HETEROCYCLIC DERIVATIVE USED AS UBIQUITIN-SPECIFIC PROTEASE INHIBITOR” (Chia Tai Tianqing Pharmaceutical Group Co., Ltd., priority 2022, dated 2024).

Assay [1] relates to MDA-MB-436 cells. The assay can be described thus: Assay on inhibitory activity for MDA-MB-436 cell proliferation (CCK-8). The class given is cell-based. Conditions: Homo sapiens, 168 h, 7 days of incubation, CCK-8, absorbance at 450 nm. How it is done: MDA-MB-436 cells in a good growth state were collected into a centrifuge tube, adjusted to a cell density of 10^4 cells/mL, and seeded in a 96-well plate (100 µL/well), and the plate was incubated overnight in a cell incubator. Compounds were added using a nanoliter pipettor, such that the final concentrations of the compounds were 1000 nM-0.457 nM. The wells were set in duplicate, and a control well was set. After another 7 days of incubation in the cell incubator, the detection reagent CCK-8 (manufacturer: Dojindo Laboratories; 10 µL/well) was added. After 2 h of incubation in the cell incubator, absorbance values were detected at 450 nm using an Envision microplate reader, the four-parameter analysis was performed, the dose-response curves were fit, and IC50 was calculated. The experimental results are shown in Table 1, where A represents 0 nM < IC50 ≤ 50 nM; B represents 50 nM < IC50 ≤ 100 nM; C represents 100 nM < IC50 ≤ 1000 nM; and D represents 1000 nM < IC50. Table 1. Inhibitory activity for MDA-MB-436 cell proliferation

In assay [2] the target is USP1/UAF1 (Homo sapiens, UniProt O94782). In words: Assay on USP1/UAF1 enzymatic inhibitory activity (Ub-Rhodamine). In kind it is biochemical. Conditions: USP1/UAF1 protein 10 nM, Ub-Rhodamine 300 nM, 30 min pre-incubation, 90 min reaction. The protocol: A USP1/UAF1 protein solution (with a concentration of 10 nM) was added to assay wells at 10 µL/well, and different compounds dissolved in DMSO were separately added to the assay wells using a nanoliter pipettor, such that the final concentrations of the compounds were 1000 nM-0.24 nM. The wells were set in duplicate, and a control well was set. After incubation of the system described above at room temperature for 30 min, Ub-Rhodamine (with a concentration of 300 nM) was added to the assay wells at 10 µL/well. The mixtures were reacted at room temperature for 90 min, and then the plate was read using a PerkinElmer Envision multifunctional microplate reader (Ex. 490 nm/Em. 520 nm). IC50 was calculated by four-parameter fitting.
Sequence of USP1/UAF1 (O94782 whole entry): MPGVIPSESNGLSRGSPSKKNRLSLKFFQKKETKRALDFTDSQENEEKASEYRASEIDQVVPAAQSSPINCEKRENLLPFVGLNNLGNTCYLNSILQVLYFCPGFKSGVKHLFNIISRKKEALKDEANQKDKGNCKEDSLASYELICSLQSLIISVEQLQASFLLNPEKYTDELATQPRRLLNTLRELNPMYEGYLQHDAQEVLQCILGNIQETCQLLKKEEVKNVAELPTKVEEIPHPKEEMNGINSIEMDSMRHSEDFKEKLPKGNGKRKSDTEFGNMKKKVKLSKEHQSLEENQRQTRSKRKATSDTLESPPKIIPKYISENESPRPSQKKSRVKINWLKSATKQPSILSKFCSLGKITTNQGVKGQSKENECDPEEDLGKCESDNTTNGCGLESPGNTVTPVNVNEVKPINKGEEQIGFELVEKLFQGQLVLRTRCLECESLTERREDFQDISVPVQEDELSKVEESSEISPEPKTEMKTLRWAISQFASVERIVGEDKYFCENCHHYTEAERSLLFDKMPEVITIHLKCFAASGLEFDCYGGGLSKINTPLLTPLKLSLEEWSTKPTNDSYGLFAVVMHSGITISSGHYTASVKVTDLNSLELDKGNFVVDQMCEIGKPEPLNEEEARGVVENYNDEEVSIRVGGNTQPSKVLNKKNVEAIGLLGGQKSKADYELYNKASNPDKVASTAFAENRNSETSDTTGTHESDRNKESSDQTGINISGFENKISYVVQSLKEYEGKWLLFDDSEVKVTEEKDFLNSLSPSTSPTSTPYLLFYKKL
Sequence of USP1/UAF1 (Q8TAF3 whole entry partner): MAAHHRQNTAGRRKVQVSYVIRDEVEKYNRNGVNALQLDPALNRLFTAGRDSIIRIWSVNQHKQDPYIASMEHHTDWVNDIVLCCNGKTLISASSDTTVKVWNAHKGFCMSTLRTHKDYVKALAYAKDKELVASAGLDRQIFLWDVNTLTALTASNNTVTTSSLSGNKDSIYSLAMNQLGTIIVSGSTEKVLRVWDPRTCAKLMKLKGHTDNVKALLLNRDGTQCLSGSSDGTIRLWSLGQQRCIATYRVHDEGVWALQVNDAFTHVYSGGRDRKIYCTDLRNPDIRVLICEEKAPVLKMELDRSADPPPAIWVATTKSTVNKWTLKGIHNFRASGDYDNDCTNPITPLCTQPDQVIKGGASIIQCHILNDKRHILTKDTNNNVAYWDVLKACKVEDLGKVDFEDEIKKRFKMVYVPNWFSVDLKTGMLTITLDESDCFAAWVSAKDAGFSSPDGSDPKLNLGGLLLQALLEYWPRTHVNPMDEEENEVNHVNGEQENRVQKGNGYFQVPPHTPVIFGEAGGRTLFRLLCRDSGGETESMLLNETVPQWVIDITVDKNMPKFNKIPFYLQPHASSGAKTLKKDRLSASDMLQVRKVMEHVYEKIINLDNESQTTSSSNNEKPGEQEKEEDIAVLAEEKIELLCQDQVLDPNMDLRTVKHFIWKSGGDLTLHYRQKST

The term IC50 denotes the concentration that inhibits the measured activity by half. Lower therefore signals greater potency. Turning to `[2H]C([2H])([2H])n1c(=O)n(Cc2ccc(-n3nc(C(C)(F)F)cc3C)cc2)c2c(F)c(-c3c(OC)ncnc3C3CC3)ncc21` [Example 17], the 50% inhibitory concentration (IC50) in assay [1] and in assay [2] was 50 to 100 nM in each case.

Regarding `[2H]C([2H])([2H])n1c(=O)n(Cc2ccc(-c3nc(C(F)(F)F)cn3C(C)C)cc2)c2c(F)c(-c3c(OC)ncnc3C3CC3)ncc21` [Example 16], the IC50 in assay [1] and in assay [2] was less than 50 nM throughout.

In the case of `[2H]C([2H])([2H])n1c(=O)n(Cc2ccc(-n3nc(C(F)(F)F)cc3C)cc2)c2c(F)c(-c3c(OC)ncnc3C3CC3)ncc21` [Example 15], the IC50 was 50 to 100 nM in assay [1] and less than 50 nM in assay [2].

Regarding `COc1ncnc(C2CC2)c1-c1ncc2c(c1F)n(Cc1ccc(-c3nc(C(F)(F)F)cn3C)cc1)c(=O)n2C` [Example 3], the IC50 in assay [1] and in assay [2] was less than 50 nM in each case.
